Measured values reported in patent publication US20200289474A1, “METHODS OF TREATING PAIN WITH A THIAZOLINE ANTI-HYPERALGESIC” (priority 2019, published 2020).
Entries after “also recorded” stand apart in the source; their conditions may differ.

Experiments:
peroxynitrite (PN) = experiment: chemical-based assays of peroxynitrite (PN) oxidation; assay type: biochemical; settings: chemical-based assay
[1] = tested on: incision-induced hyperalgesia; experiment: Brennan protocol, treatment paradigm (established hyperalgesia); assay type: in vivo, rat
From the text: Two incisional pain models were used to assess Compound 1 effects on hyperalgesia. The first model is referred to as the Brennan model in which, under anesthesia, a 1 cm longitudinal incision to the skin and underlying fascia of a rat hindpaw is made. The second is a variation but is a more invasive procedure in which the skin and muscle are spread apart using forceps which creates a longer-lasting hypersensitivity.
Using the Brennan protocol and a treatment paradigm in rat, Compound 1 (10 and 30 mg/kg PO), morphine (3 mg/kg SC) or vehicle were administered daily at 24 h post-incision, and again at 48 and 72 h post-incision. Mechanical thresholds were obtained at 1 h and 2 h post-dose in all cohorts on all days.

[2] = tested on: STZ-induced mechanical allodynia; experiment: streptozotocin (STZ)-induced diabetic rats, first experiment; assay type: in vivo, rat
Description: FIG. 14 illustrates non-limiting reversal of mechanical hypersensitivity by Compound 1 in a diabetic neuropathy model, in accordance with various embodiments. Streptozotocin (STZ) destroys insulin-producing cells and generates a diabetic phenotype in […]. Animals were dosed with STZ on day −7. By day 0 animals are hyperglycemic and hyperalgesic (day 0 BL).
Experiments were conducted to determine the effect of Compound 1 in streptozotocin (STZ)-induced diabetic rats. In the first experiment, after obtaining mechanical threshold baselines, STZ (50 mg/kg IV) was administered (Day −7). Two days later, blood glucose levels were measured and animals that were hyperglycemic (>250 mg/dL) continued in the study. On Day 0 the baseline for mechanical thresholds prior to dosing with test articles was established for the rats. Compound 1 (10, 30, and 100 mg/kg PO), gabapentin (100 mg/kg PO) or vehicle was then administered daily for 5 days. On Day 0 mechanical thresholds were obtained at 1, 3, and 6 h post-dose. On Day 1 mechanical thresholds were measured immediately prior to dosing and then 3 h post-dose. The same regimen was followed on Day 3.

[3] = beagle dog single dose study IV 10 mg/kg, oral 10 and 100 mg/kg; assay type: in vivo; settings: fasted beagle dogs
Description: In another study Compound 1 was administered IV as a single dose to fasted beagle dogs at 10 mg/kg and orally at 10 and 100 mg/kg. Compound 1 was rapidly and well absorbed orally, within 1 hr, reaching peak plasma concentrations of 15 and 108 μg/mL at 10 and 100 mg/kg doses, respectively. The compound distributed readily in tissues with a moderate steady-state volume of distribution (0.3 L/kg).

[4] = rat brain distribution study; assay type: in vivo
From the text: A rat brain distribution study performed in order to determine standard pharmacokinetic parameters and to assess the brain penetration properties of Compound 1 administered orally and intravenously. […] The compound distributed readily in tissues with a steady-state volume of distribution of 1.7 L/kg.

stability in plasma [5] = assay type: in vitro ADME; settings: rat plasma
stability in plasma [6] = assay type: in vitro ADME; settings: human plasma
[7] = rat single dose excretion/metabolite study (urine and feces); assay type: in vivo
From the text: Further metabolism work in additional species will be undertaken.

P-gp = target: T1, P-gp (Homo sapiens, UniProt P08183); experiment: transporter inhibition, Caco-2 cells, digoxin transport; assay type: in vitro ADME
T1 construct: Caco-2 cells; endogenous in cells; host or cells: Caco-2 cells
T1 sequence (P08183 whole entry): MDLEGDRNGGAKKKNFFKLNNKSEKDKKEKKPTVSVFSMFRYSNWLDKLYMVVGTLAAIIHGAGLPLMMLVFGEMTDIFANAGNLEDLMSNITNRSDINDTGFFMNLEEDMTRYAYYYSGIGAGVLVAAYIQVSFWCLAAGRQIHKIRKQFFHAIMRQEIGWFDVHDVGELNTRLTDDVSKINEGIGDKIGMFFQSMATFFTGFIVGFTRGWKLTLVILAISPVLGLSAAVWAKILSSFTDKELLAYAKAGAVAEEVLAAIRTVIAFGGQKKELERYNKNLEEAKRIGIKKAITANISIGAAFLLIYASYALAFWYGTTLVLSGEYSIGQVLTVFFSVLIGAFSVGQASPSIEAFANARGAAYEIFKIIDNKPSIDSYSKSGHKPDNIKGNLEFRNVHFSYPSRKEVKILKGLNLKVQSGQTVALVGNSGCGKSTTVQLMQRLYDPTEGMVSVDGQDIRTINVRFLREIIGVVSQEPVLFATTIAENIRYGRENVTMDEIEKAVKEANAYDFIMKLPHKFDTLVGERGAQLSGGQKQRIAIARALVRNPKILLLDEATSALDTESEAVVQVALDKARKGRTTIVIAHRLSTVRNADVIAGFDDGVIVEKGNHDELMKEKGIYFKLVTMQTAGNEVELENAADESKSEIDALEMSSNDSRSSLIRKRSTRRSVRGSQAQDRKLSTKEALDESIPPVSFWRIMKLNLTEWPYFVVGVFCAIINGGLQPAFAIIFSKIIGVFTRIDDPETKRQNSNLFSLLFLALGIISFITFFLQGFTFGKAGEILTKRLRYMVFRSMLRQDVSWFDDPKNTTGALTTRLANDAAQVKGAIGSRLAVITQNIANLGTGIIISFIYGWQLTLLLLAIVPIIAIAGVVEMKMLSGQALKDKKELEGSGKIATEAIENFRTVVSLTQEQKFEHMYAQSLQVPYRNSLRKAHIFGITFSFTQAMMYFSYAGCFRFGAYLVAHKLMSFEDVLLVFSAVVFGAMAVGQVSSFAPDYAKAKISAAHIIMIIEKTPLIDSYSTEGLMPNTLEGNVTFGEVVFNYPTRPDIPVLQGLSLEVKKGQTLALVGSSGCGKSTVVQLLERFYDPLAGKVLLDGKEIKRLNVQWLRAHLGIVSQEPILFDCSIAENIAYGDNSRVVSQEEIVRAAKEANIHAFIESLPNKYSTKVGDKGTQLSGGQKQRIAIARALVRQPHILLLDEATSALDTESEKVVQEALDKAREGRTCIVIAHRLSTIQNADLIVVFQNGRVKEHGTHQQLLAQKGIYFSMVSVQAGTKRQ

BCRP = target: T2, BCRP (Homo sapiens, UniProt Q9UNQ0); experiment: transporter inhibition, MDCKII-BCRP cells, prazosin transport; assay type: in vitro ADME
T2 construct: expressed in transfected cells
T2 sequence (Q9UNQ0 1-655): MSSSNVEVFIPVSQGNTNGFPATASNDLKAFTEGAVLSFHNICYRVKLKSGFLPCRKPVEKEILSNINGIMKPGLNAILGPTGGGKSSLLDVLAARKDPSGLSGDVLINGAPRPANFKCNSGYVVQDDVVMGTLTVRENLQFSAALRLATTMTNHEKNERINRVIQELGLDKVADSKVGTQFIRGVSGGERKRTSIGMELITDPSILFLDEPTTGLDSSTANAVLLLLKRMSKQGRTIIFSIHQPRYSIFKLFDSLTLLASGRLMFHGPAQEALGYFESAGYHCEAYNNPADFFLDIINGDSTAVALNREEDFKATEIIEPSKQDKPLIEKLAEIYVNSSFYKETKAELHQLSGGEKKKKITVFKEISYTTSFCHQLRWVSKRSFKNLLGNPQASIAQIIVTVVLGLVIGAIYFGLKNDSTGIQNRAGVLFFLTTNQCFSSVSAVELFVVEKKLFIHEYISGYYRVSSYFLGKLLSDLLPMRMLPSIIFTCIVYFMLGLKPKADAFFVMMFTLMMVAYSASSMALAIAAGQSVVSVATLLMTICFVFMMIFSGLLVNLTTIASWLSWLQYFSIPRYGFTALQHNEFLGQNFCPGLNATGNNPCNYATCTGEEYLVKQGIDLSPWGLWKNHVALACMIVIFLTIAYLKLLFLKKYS

MDCKII control cells = experiment: cytotoxicity by lactate dehydrogenase (LDH) release; assay type: cell-based
[8] = rat 7-day repeat dose PO study (toxicokinetics)

Q: With `CC1(C)SC(Nc2ccccc2O)=N[C@@H]1C(=O)O.Cl` [Compound 1, (R)-2-(2-hydroxyphenylamino)-5,5-dimethyl-4,5-dihydrothiazole-4-carboxylic acid mono-hydrochloride] as the compound, how does the “PN-mediated oxidation of small-molecule organic substrates such as luminol” value (peroxynitrite (PN)) read?
A: Its value is “inhibits PN-mediated oxidation”.

Q: What about the reversal of hyperalgesia ([1]; 10 and 30 mg/kg PO, Day 2, 1 h and 2 h post-dosing) of the same compound?
A: The reversal of hyperalgesia was “full reversal of hyperalgesia”.

Q: What about the hyperalgesia ([1]; 10 and 30 mg/kg PO, Day 3 prior to dosing) of the same compound?
A: The hyperalgesia was “did not show hyperalgesia”.

Q: And the hyperalgesia ([1]; low- and high-dose, Day 3 after dosing)?
A: The hyperalgesia was “prevented/reversed hyperalgesia completely”.

Q: And the reversal of hyperalgesia ([1]; low-dose (10 mg/kg PO), Day 1, 2 h post-dose)?
A: Its reversal of hyperalgesia is “partial reversal”.

Q: What about the “reversal of allodynia (mechanical thresholds)” value ([2]; 10, 30, 100 mg/kg PO daily, subsequent days) of the same compound?
A: The value was “statistically-significant”.

Q: And the “reversal of allodynia (mechanical thresholds)” value ([2]; 10, 30, 100 mg/kg PO, Day 0)?
A: The value was “non-significant reversal of allodynia”.

Q: And the “efficacy compared with gabapentin” value ([2]; repeated dosing, gabapentin 100 mg/kg PO, mono-hydrochloride)?
A: The value was “comparable to gabapentin”.

Q: And the “effect on allodynia, STZ diabetic neuropathy model (summary)” value ([2]; streptozotocin-induced, mono-hydrochloride)?
A: The value was “alleviates allodynia; also recorded: blocks STZ-induced mechanical allodynia”.

Q: What about the mean terminal half-life [3] of the same compound?
A: Its mean terminal half-life is 3.9 h.

Q: And the “steady-state volume of distribution” value [3]?
A: Its value is 0.3 L/kg.

Q: And the oral bioavailability ([3]; both 10 and 100 mg/kg)?
A: The oral bioavailability was 75%.

Q: What about the peak plasma concentration ([3]; oral 10 mg/kg) of the same compound?
A: Its peak plasma concentration is 15 µg/mL.

Q: What about the peak plasma concentration ([3]; oral 100 mg/kg) of the same compound?
A: Its peak plasma concentration is 108 µg/mL.

Q: And the “time to peak plasma concentration” value ([3]; oral 10 and 100 mg/kg)?
A: The value was no more than 1 h.

Q: What about the peak plasma concentration ([4]; rat, in vivo, po, 30 mg/kg) of the same compound?
A: Its peak plasma concentration is 9 µg/mL.

Q: And the “time to peak plasma concentration” value ([4]; rat, in vivo, po, 30 mg/kg)?
A: Its value is no more than 1 h.

Q: And the “steady-state volume of distribution” value ([4]; rats)?
A: Its value is 1.7 L/kg.

Q: What about the oral bioavailability ([4]; rats, 30 mg/kg oral dose) of the same compound?
A: The oral bioavailability was 111%.

Q: What about the terminal half-life ([4]; rats, 30 mg/kg oral dose) of the same compound?
A: The terminal half-life was 1.6 h.

Q: What about the brain-to-plasma concentration ratio ([4]; rats, 1 h after IV administration) of the same compound?
A: Its brain-to-plasma concentration ratio is 0.02.

Q: What about the stability in plasma (stability in plasma [5]) of the same compound?
A: The stability in plasma was “stable”.

Q: What about the stability in plasma (stability in plasma [6]) of the same compound?
A: Its stability in plasma is “stable”.

Q: And the “administered compound recovered unchanged” value ([7]; rat single dose, urine and feces)?
A: The value was 5-15%.

Q: What about the “form excreted in urine and feces” value ([7]; rats) of the same compound?
A: Its value is “primarily as a sulfate conjugate”.

Q: What about the “inhibition” value (P-gp) of the same compound?
A: Its value is “does not inhibit”.

Q: What about the “inhibition” value (BCRP) of the same compound?
A: Its value is “modestly inhibits”.

Q: What about the “percent cytotoxicity (LDH release)” value (MDCKII control cells; 100 μM) of the same compound?
A: Its value is 31.3%.

Q: And the “percent cytotoxicity (LDH release)” value (MDCKII control cells; 600 μM)?
A: Its value is 33.6%.

Q: And the MTD ([8]; female rats, oral gavage, 7 days)?
A: Its MTD is 2000 mg/kg.

Q: What about the Cmax ([8]; rat 7 Day PO, 2000 mg/kg, Seventh Daily Dose, mean) of the same compound?
A: Its Cmax is 119 µg/mL.
